Several values for one entry are separate records, joined by “and”; a condition that tells them apart may be missing. Identical values can stand only once. Inconclusive results and toxic doses are left out. How the source made its calls: active means survival T/C of 150% or more; inactive means T/C below 125% in these data.
Tested on: P388 leukemia ip, CD2F1 mice, survival T/C
Test: NCI In Vivo Anticancer Drug Screen. Data for tumor model P388 Leukemia (intraperitoneal) in CD2F1 (CDF1) mice
Conditions: endpoint: median survival time, higher = longer survival
How it was run: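 Mice carrying the transplanted tumor received test compound or vehicle. Survival was recorded in each group, and the value is the treated-group measurement divided by that of the vehicle-treated control group.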

[1] = dose: 12.5 mg/kg/injection, schedule: Q01DX009 (ip), vehicle: saline
[2] = dose: 50.0 mg/kg/injection, schedule: Q01DX009 (ip), vehicle: saline
[3] = dose: 50.0 mg/kg/injection, schedule: Q01DX009 (ip), vehicle: saline with Tween-80
[4] = dose: 100.0 mg/kg/injection, schedule: Q01DX009 (ip), vehicle: saline with Tween-80
[5] = dose: 100.0 mg/kg/injection, schedule: Q01DX009 (ip), vehicle: Klucel (hydroxypropylcellulose) (HPC)
[6] = dose: 200.0 mg/kg/injection, schedule: Q01DX009 (ip), vehicle: Klucel (hydroxypropylcellulose) (HPC)
[7] = dose: 100.0 mg/kg/injection, schedule: Q01DX009 (ip), vehicle: saline
[8] = dose: 200.0 mg/kg/injection, schedule: Q01DX009 (ip), vehicle: saline
[9] = dose: 50.0 mg/kg/injection, schedule: Q01DX005 (ip), vehicle: saline with Tween-80

Measured: T/C

O=C(c1cccs1)C1SC(C(=O)c2cccs2)C2(O)c3cccc4cccc(c34)C12O (stereo unspecified)
inactive: dose: 7.5 mg/kg/injection, schedule: Q01DX009 (ip), vehicle: Klucel (hydroxypropylcellulose) (HPC) 100 % of control

C[N+](C)(C)CCC(=O)c1cccc([N+](=O)[O-])c1
inactive: [1] 101 % of control | dose: 25.0 mg/kg/injection, schedule: Q01DX009 (ip), vehicle: saline 97 % of control | [2] 108 % of control and 97 % of control

CCCC(=O)c1ccc(C)cc1
inactive: dose: 100.0 mg/kg/injection, schedule: Q04DX003 (ip), vehicle: saline with Tween-80 104 % of control | dose: 200.0 mg/kg/injection, schedule: Q04DX003 (ip), vehicle: saline with Tween-80 104 % of control | dose: 400.0 mg/kg/injection, schedule: Q04DX003 (ip), vehicle: saline with Tween-80 86 % of control

COC(=O)c1cc(-c2ccc(F)cc2)[nH]c(=O)c1C#N
inactive: dose: 60.0 mg/kg/injection, schedule: Q01DX005 (ip), vehicle: saline with Tween-80 97 % of control | dose: 120.0 mg/kg/injection, schedule: Q01DX005 (ip), vehicle: saline with Tween-80 106 % of control | dose: 240.0 mg/kg/injection, schedule: Q01DX005 (ip), vehicle: saline with Tween-80 104 % of control

CCOC/C(=N\NS(=O)(=O)c1ccc(C)cc1)C1(O)Cc2c(O)c3c(c(O)c2C(O)C1)C(=O)c1c(OC)cccc1C3=O (stereo unspecified)
inactive: dose: 1.56 mg/kg/injection, schedule: Q01DX009 (ip), vehicle: other 100 % of control | dose: 3.13 mg/kg/injection, schedule: Q01DX009 (ip), vehicle: other 100 % of control | dose: 6.25 mg/kg/injection, schedule: Q01DX009 (ip), vehicle: other 103 % of control | dose: 12.5 mg/kg/injection, schedule: Q01DX009 (ip), vehicle: other 107 % of control | dose: 25.0 mg/kg/injection, schedule: Q01DX009 (ip), vehicle: other 94 % of control

CC1=CC(O/C=C2\C(=O)OC3C=CCC23)OC1=O (stereo unspecified)
inactive: dose: 100.0 mg/kg/injection, schedule: Q04DX002 (ip), vehicle: suspension in saline 99 % of control | dose: 200.0 mg/kg/injection, schedule: Q04DX002 (ip), vehicle: suspension in saline 98 % of control | dose: 400.0 mg/kg/injection, schedule: Q04DX002 (ip), vehicle: suspension in saline 111 % of control

N#CN=CN1CC2CCC(CC2)C1
inactive: dose: 3.13 mg/kg/injection, schedule: Q01DX009 (ip), vehicle: saline 98 % of control | dose: 6.25 mg/kg/injection, schedule: Q01DX009 (ip), vehicle: saline 102 % of control | [1] 92 % of control

COc1cc2ccnc(C=O)c2cc1OC
inactive: dose: 25.0 mg/kg/injection, schedule: Q01DX009 (ip), vehicle: saline with Tween-80 110 % of control | [3] 110 % of control | [4] 107 % of control

c1cnc2c3ccncc3c3nc(-c4ccncc4)[nH]c3c2c1
inactive: dose: 50.0 mg/kg/injection, schedule: Q01DX005 (ip), vehicle: Klucel (hydroxypropylcellulose) (HPC) 91 % of control | dose: 100.0 mg/kg/injection, schedule: Q01DX005 (ip), vehicle: Klucel (hydroxypropylcellulose) (HPC) 88 % of control | dose: 200.0 mg/kg/injection, schedule: Q01DX005 (ip), vehicle: Klucel (hydroxypropylcellulose) (HPC) 101 % of control

NC(Cc1ccc2ccccc2c1Br)C(=O)O (stereo unspecified)
inactive: dose: 50.0 mg/kg/injection, schedule: Q01DX009 (ip), vehicle: Klucel (hydroxypropylcellulose) (HPC) 99 % of control | [5] 99 % of control | [6] 97 % of control

CC(Sc1ccccc1)C(=O)N1CCCC1 (stereo unspecified)
inactive: [3] 106 % of control | [4] 103 % of control | dose: 200.0 mg/kg/injection, schedule: Q01DX009 (ip), vehicle: saline with Tween-80 105 % of control

CCN(CC)Cc1cc(Nc2nc(/C=C/c3ccc(Cl)cc3)nc(Cl)c2-c2ccc(Cl)cc2)ccc1O
inactive: dose: 25.0 mg/kg/injection, schedule: Q01DX001 (ip), vehicle: suspension in saline 107 % of control | dose: 50.0 mg/kg/injection, schedule: Q01DX001 (ip), vehicle: suspension in saline 111 % of control | dose: 50.0 mg/kg/injection, schedule: Q01DX005 (ip), vehicle: saline 111 % of control | dose: 100.0 mg/kg/injection, schedule: Q01DX001 (ip), vehicle: saline 103 % of control | dose: 100.0 mg/kg/injection, schedule: Q01DX001 (ip), vehicle: suspension in saline 100 % of control and 108 % of control | dose: 100.0 mg/kg/injection, schedule: Q01DX005 (ip), vehicle: saline 116 % of control | dose: 200.0 mg/kg/injection, schedule: Q01DX001 (ip), vehicle: saline 103 % of control | dose: 200.0 mg/kg/injection, schedule: Q01DX001 (ip), vehicle: suspension in saline 108 % of control and 97 % of control | dose: 200.0 mg/kg/injection, schedule: Q01DX005 (ip), vehicle: saline 103 % of control | dose: 400.0 mg/kg/injection, schedule: Q01DX001 (ip), vehicle: saline 103 % of control | dose: 400.0 mg/kg/injection, schedule: Q01DX001 (ip), vehicle: suspension in saline 108 % of control and 87 % of control

CC(=O)OCC12C(=O)CC(C)C3(CC(c4ccoc4)OC3=O)C1(C)CCCC21CO1 (stereo unspecified) (tested in a mixture with another compound)
inactive: dose: 12.0 mg/kg/injection, schedule: Q01DX005 (ip), vehicle: Klucel (hydroxypropylcellulose) (HPC) 94 % of control | dose: 24.0 mg/kg/injection, schedule: Q01DX005 (ip), vehicle: Klucel (hydroxypropylcellulose) (HPC) 92 % of control | dose: 48.0 mg/kg/injection, schedule: Q01DX005 (ip), vehicle: Klucel (hydroxypropylcellulose) (HPC) 91 % of control | dose: 96.0 mg/kg/injection, schedule: Q01DX005 (ip), vehicle: Klucel (hydroxypropylcellulose) (HPC) 100 % of control

Brc1cnn(Cn2cc(Br)cn2)c1
inactive: dose: 60.0 mg/kg/injection, schedule: Q01DX005 (ip), vehicle: Klucel (hydroxypropylcellulose) (HPC) 102 % of control | dose: 120.0 mg/kg/injection, schedule: Q01DX005 (ip), vehicle: Klucel (hydroxypropylcellulose) (HPC) 102 % of control | dose: 240.0 mg/kg/injection, schedule: Q01DX005 (ip), vehicle: Klucel (hydroxypropylcellulose) (HPC) 99 % of control

COc1cc[c]([Sn]([O][Sn]([Cl])([c]2ccc(OC)cc2)[c]2ccc(OC)cc2)[c]2ccc(OC)cc2)cc1
inactive: dose: 3.12 mg/kg/injection, schedule: Q01DX005 (ip), vehicle: Klucel (hydroxypropylcellulose) (HPC) 97 % of control | dose: 6.25 mg/kg/injection, schedule: Q01DX005 (ip), vehicle: Klucel (hydroxypropylcellulose) (HPC) 116 % of control and 92 % of control | dose: 12.5 mg/kg/injection, schedule: Q01DX005 (ip), vehicle: Klucel (hydroxypropylcellulose) (HPC) 111 % of control | dose: 25.0 mg/kg/injection, schedule: Q01DX005 (ip), vehicle: Klucel (hydroxypropylcellulose) (HPC) 120 % of control

c1cc2c(cc1C1SCSCS1)OCO2
inactive: [5] 100 % of control | [6] 120 % of control | dose: 400.0 mg/kg/injection, schedule: Q01DX009 (ip), vehicle: Klucel (hydroxypropylcellulose) (HPC) 110 % of control

COP(=O)(Cc1ccccc1O)OC
inactive: [2] 97 % of control | [7] 99 % of control | [8] 96 % of control

CN1CCN(Cc2ccccc2)C(C#N)C1 (stereo unspecified)
inactive: dose: 3.13 mg/kg/injection, schedule: Q01DX005 (ip), vehicle: water 100 % of control | dose: 6.25 mg/kg/injection, schedule: Q01DX005 (ip), vehicle: water 95 % of control | dose: 12.5 mg/kg/injection, schedule: Q01DX005 (ip), vehicle: water 93 % of control | dose: 25.0 mg/kg/injection, schedule: Q01DX005 (ip), vehicle: water 100 % of control | dose: 50.0 mg/kg/injection, schedule: Q01DX005 (ip), vehicle: water 105 % of control and 112 % of control | dose: 100.0 mg/kg/injection, schedule: Q01DX005 (ip), vehicle: water 105 % of control

O=C(O)C(=O)Nc1cccc2c1ccc1c(=O)cc(C(=O)O)[nH]c12
inactive: [2] 109 % of control | [7] 109 % of control | [8] 104 % of control

Nc1ccc2cc(S(=O)(=O)O)cc(O)c2c1N=Nc1ccc(NC(=O)c2ccc(C(=O)Nc3ccc(N=Nc4c(N)ccc5cc(S(=O)(=O)O)cc(O)c45)c(S(=O)(=O)O)c3)cc2)cc1S(=O)(=O)O
inactive: dose: 12.5 mg/kg/injection, schedule: Q01DX005 (ip), vehicle: saline with Tween-80 101 % of control | dose: 25.0 mg/kg/injection, schedule: Q01DX005 (ip), vehicle: saline with Tween-80 96 % of control | [9] 98 % of control

COc1cc2c(cc1O)C(c1cc(O)c(O)c(OC)c1)C(O)(C(=O)O)C(CO)C2O (stereo unspecified)
inactive: [9] 100 % of control | dose: 100.0 mg/kg/injection, schedule: Q01DX005 (ip), vehicle: saline with Tween-80 101 % of control | dose: 200.0 mg/kg/injection, schedule: Q01DX005 (ip), vehicle: saline with Tween-80 99 % of control

Reference: PubChem BioAssay AID330 (DTP/NCI, 2004)
